Where “and” joins values, the source holds several entries; their conditions need not be identical. Identical values can stand only once. Entries after “also recorded” stand apart in the source; their conditions may differ. Like-named read-outs stand apart in the source and are kept apart here.
Key:
Jurkat cells = test: MET-ENK-FITC binding to Jurkat cells (flow cytometry, Scatchard); parameters: species or system human
NALM 6 cells [1] = test: [Ca^2+ ]i response of NALM 6 / leukemia cells (Indo-1, flow cytometry); type: cell-based, human
Protocol: FIG. 15, Panels A-C. […] Cells were labeled with Indo-1 as previously described (Rabinovitch et al., 1986), washed twice in serum-free medium and held at 4° C. until flow cytometric analysis. The violet/blue fluorescence ratio was measured using previously described methods (Rabinovitch et al., 1986). Nonstimulated cells (measured in medium, alone) were used to establish a relative violet/blue ratio arbitrarily set at 1.0 as previously described (Rabinovitch). Calibration of [Ca^2+ ]i was carried out as previously described by Rabinovitch et al (1986) using the formula: [formula]
Rmax values were determined by measuring the maximum shift in indo violet/blue fluorescence for cells treated with 4 μM ionomycin. Rmin was measured as the minimum ratio for the violet blue fluorescence of ionomycin treated cells following the addition of 8 mM EGTA. […] The Kd (effective dissociation constant) was set at 250 nM.

EBI1 = target: T1, EBI1 (Homo sapiens, UniProt P32248)
T1 sequence (P32248 25-378): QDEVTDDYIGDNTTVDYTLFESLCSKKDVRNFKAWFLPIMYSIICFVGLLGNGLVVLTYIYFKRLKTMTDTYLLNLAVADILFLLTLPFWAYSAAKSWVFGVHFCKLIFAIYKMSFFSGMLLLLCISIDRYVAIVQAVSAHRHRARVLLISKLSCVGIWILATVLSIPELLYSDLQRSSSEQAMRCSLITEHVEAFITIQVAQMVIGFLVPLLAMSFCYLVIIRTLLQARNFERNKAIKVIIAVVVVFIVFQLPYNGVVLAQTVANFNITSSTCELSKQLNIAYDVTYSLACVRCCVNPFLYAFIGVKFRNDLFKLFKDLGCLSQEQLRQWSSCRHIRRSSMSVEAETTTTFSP

lymphocytes = settings: infusion into afferent lymphatics, sheep; cited from earlier work
NALM 6 cells [2] = test: Migration (chemotaxis) of NALM 6 pre-B ALL cells; type: cell-based, human; settings: for Number of cells at 40 μm from origin: cells preincubated with mAb (MET-ENK line: buffer, alone); for cell counts, migration to MET-ENK without naloxone: spontaneous 1647
NALM 6 cells [3] = test: Light scatter analysis of morphological response of NALM 6 cells; type: cell-based, human
Protocol: FIG. 2, Panels A and B. Methionine-enkephalin induces a morphological change in NALM 6 cells. […] Analysis of forward and right angle light scatter was performed using a Becton Dickinson FACS SCAN flow cytometer as described (Sklar et al., 1984). Histograms of light scatter were obtained by analyzing 10,000 cells per sample. Data are expressed as mean channel number (y-axis) vs concentration of MET-ENK (x-axis).
Forward and right angle light scatter analysis of the morphological response to MET-ENK: The effect of MET-ENK on cell morphology were measured using flow cytometric analysis of forward and right angle light scatter as previously described (Sklar et al., 1984). For these studies 10^6 cells were resuspended in one-ml of PBS, activated by the addition of MET-ENK or maintained in the PBS buffer alone, and then, incubated for 5 minutes at 37° C. […] Samples were analyzed on a Becton Dickinson FACS SCAN flow cytometer with excitation at 488 nm (Sklar et al., 1984). Histograms of light scattering were obtained by analyzing 10,000 cells for each sample. Data analysis was performed using the Lysys System software package.

LAZ 221 cells = test: Flow cytometry of surface molecule expression on LAZ 221 cells; type: cell-based, human
Protocol: FIG. 4, Panels A-C. […] Data are presented as mean fluorescence intensities measured for 10,000 cells labeled with anti-CD9 or CD10 mAb. In Panel A, the NALM 6 Cells were incubated with MET-ENK (10^-7 M) for the times indicated. In Panel B, the LAZ 221 cells were incubated with MET-ENK at the doses indicated for 5 minutes at 37° C. […] The anti-CD9 and anti-CD10 mAb used for these experiments were of the IgG2a isotype.
Immunofluorescence Staining and Flow Cytometric Analysis of Cell Surface Molecules: Cells were resuspended at 1×10^6 /ml in PBS and then incubated for periods of 5 to 120 minutes at 37° C. with MET-ENK at doses of 0 to 10^-5 M. Incubations were terminated by transferring samples to an ice bath and then pelleting the cells by centrifugation at 1800 rpm for 5 minutes at 4° C.
Immunofluorescence staining was carried out in 4-ml tubes maintained in an ice water bath. […] Cells were subsequently fixed within a 2% solution of formalin and maintained in the dark at 10° C. until analyzed.
Flow cytometric analysis was performed using a FACS SCAN Flow Cytometer (Becton Dickinson, Mountain View, Calif.) equipped with a HP9000 Series computer and the Lysys System software analysis package. Data were collected as histograms depicting the fluorescence intensity for 5,000 to 10,000 cells per sample.
The non-binding IgG1 MOPC myeloma protein, anti-macrophage/monocyte specific CD14 (MO2; IgG2) and anti-T cell specific CD3 (OKT3; IgG2a) mAb were employed as nonreactive controls for measuring the autofluorescence of B cells.

LAZ 388 cells = test: Migration (chemotaxis) of LAZ 388 EBV-transformed B cells; type: cell-based, human
T cells = settings: literature; cited from earlier work
[4] = test system: lymphocytes and macrophages; settings: cited from earlier work
murine splenocytes = settings: cited from earlier work
[5] = LAZ 221, 10^-7 M MET-ENK, untreated 1.0
[6] = LAZ 221, 10^-7 M MET-ENK, untreated 1.7

## CSCC[C@H](NC(=O)[C@H](Cc1ccccc1)NC(=O)CNC(=O)CNC(=O)[C@@H](N)Cc1ccc(O)cc1)C(=O)O [MET-ENK, Tyr-Gly-Gly-Phe-Met]
Jurkat cells
  Bmax, low affinity sites: 3.3×10^4 sites/cell and 3.0×10^4 sites/cell
  number of high affinity sites: 3.3 pM
  number of low affinity sites: 101 pM
Jurkat cells; listed as methionine enkephalin
  Bmax, low affinity sites: 3.0×10^4 sites/cell
Jurkat cells; read-out: Kd, high affinity site
  Kd: 1.36 nM
Jurkat cells; read-out: Kd, low affinity site
  Kd: 318 nM
NALM 6 cells [1]
  [Ca^2+ ]i response: rapid rise in the concentration of free intracellular Ca2+; also recorded: rapid rise in [Ca^2+ ]i
NALM 6 cells [1]; listed as methionine-enkephalin
  [Ca^2+ ]i response: concentration dependent rise in [Ca^2+ ]i
EBI1
  cAMP: 109.6 fmoles/cell × 10^3
lymphocytes
  lymphocyte exit from popliteal nodes: stimulated small and blast lymphocytes to exit the node and enter the efferent lymph
NALM 6 cells [2]; MET-ENK 0.01 nM
  Number of cells at 40 μm from origin: 238
NALM 6 cells [2]; MET-ENK 1 nM
  cell counts, migration to MET-ENK without naloxone: 2925 cell counts
NALM 6 cells [2]; MET-ENK 1.0 nM
  Number of cells at 40 μm from origin: 407
NALM 6 cells [2]; MET-ENK 100 nM
  cell counts, migration to MET-ENK without naloxone: 3492 cell counts
  Number of cells at 40 μm from origin: 637
NALM 6 cells [2]; NALM 6, peptide 100 nM, spontaneous locomotion 2190
  cell migration (cell counts): 6952 cell counts
NALM 6 cells [2]; NALM 6 and LAZ 221 cells
  effect on migration of pre-B ALL cells: potent stimulus for the migration of NALM 6 and LAZ 221 (pre-B ALL) but not LAZ 388 (EBV-transformed) cells
NALM 6 cells [2]; NALM 6 and LAZ 221 pre-B ALL cells
  concentration at which effect on migration is detected: ≤ 10 pM
NALM 6 cells [3]; 5 minutes at 37° C.
  morphological response (light scatter) of NALM 6 cells: increase in light scatter (right angle and forward)
NALM 6 cells [3]; NALM 6
  lowest MET-ENK concentration causing morphological response: 0.01 nM
  time of exposure for morphological response: ≤ 5 minutes
LAZ 221 cells; LAZ 221
  surface expression of CD9: transient increase in their surface expression of CD9 but not CD10 molecules
LAZ 221 cells; LAZ 221, 10^-7 M MET-ENK, untreated 0.9
  CD2 (LFA-2) fluorescence ratio: 1.0
LAZ 221 cells; [5]
  CD4 fluorescence ratio: 1.0
  CD11a (LF1α) fluorescence ratio: 1.1
  CD18 (Integrin β chain) fluorescence ratio: 1.1
  CD20 fluorescence ratio: 1.1
LAZ 221 cells; LAZ 221, 10^-7 M MET-ENK, untreated 1.4
  CD11b (Mac 1) fluorescence ratio: 1.5
LAZ 221 cells; LAZ 221, 10^-7 M MET-ENK, untreated 1.5
  CD54 (ICAM-1) fluorescence ratio: 1.5
LAZ 221 cells; [6]
  CD19 fluorescence ratio: 1.9
  CD29 (VLA-β chain) fluorescence ratio: 1.9
  CD58 (LFA-3) fluorescence ratio: 1.9
LAZ 221 cells; LAZ 221, 10^-7 M MET-ENK, untreated 5.8
  VLA-β; DE9N fluorescence ratio: 5.6
LAZ 221 cells; LAZ 221, 5 minutes at 37° C.
  lowest dose increasing CD9 expression: 10^-11 M
LAZ 388 cells; LAZ 388, peptide 100 nM, spontaneous locomotion 1938
  cell migration (cell counts): 1986 cell counts
LAZ 388 cells; LAZ 388 vs spontaneous locomotion
  migration of LAZ 388 cells: equivalent to their spontaneous locomotion
T cells
  T cell aggregation, rosetting, morphology, adhesion molecules: enhance T cell aggregation
[4]; animals
  lymphocyte trafficking in vivo: enhance lymphocyte trafficking
[4]; injection into cerebroventricles of rodents
  lymphocyte and macrophage migration into ventricles: elicited lymphocyte and macrophage migration into the ventricles
Murine splenocytes
  humoral / antibody response: diminished

From patent US5753516A, “Screening method for ligands of the EBI-1 receptor” (priority 1995, dated 1998)
